Legend:
Assay type in all cases: cell-based, mouse
[1] = test system: C2C12 myotube cells; assay: Myotube diameter of C2C12 myotubes treated with inducers (no CCM); details: 72 hours
Procedure: (§1) A C2C12 cell line was dispensed into a 6-well plate at 4.0×10^5 cells/well, and then cultured in DMEM medium containing 10% fetal bovine serum (FBS) under 37° C. and 5% CO2 conditions for one day. When the cell density reached about 80%, the medium was replaced with a differentiation medium and the cells were cultured for additional 3 days to set up a normal control group, and simultaneously a test group was set up by treatment with WY-14643, which is a PDK-4 activator, at a concentration of 50 μM. […] Scale bars inserted in FIGS. 13A and 13B represent a horizontal length of 50 μm. Referring to FIG. 13, it was confirmed that the diameter of myotube cells decreased when treated with the PDK-4 activator (i.e., WY-14643), thereby inducing the cells to a state similar to that of cancer cachexia.
A C2C12 cell line was dispensed into a 6-well plate at 4.0×10^5 cells/well, and then cultured in DMEM medium containing 10% fetal bovine serum (FBS) under 37° C. and 5% CO2 conditions for one day. […]
A C2C12 cell line was dispensed into a 6-well plate at 4.0×10^5 cells/well, and then cultured in DMEM medium containing 10% fetal bovine serum (FBS) under 37° C. and 5% CO2 conditions for one day. […] The myotube diameter was measured using Image J to confirm the changes in diameter of myotube cells, and the results are shown in FIG. 37B.

[2] = test system: PDK-4; assay: PDK-4 expression (Western blot) in CCM-treated C2C12 myotubes; details: for expression of PDK-4: C2C12 myotubes + CCM, 72 hours, comparison experiment with components alone and in combination; for expression level of PDK-4: C2C12 myotubes, differentiation medium:CCM 1:1, 72 hours, three predetermined concentrations, vs CCM control
Procedure: (§2) C2C12 cell line was dispensed into a 6-well plate at 4.0×10^5 cells/well and cultured in DMEM medium containing 10% fetal bovine serum (FBS) under 37° C. and 5% CO2 conditions for one day. When the cell density reached about 80%, the medium was replaced with a differentiation medium and the cells were cultured for additional 3 days. […] After culturing for 72 hours, the cells were collected and analyzed for PDK-4, which is a target marker, by Western blot and the results are summarized in FIG. 6.
(§3) A C2C12 cell line was dispensed into a 6-well plate at 4.0×10^5 cells/well, and then cultured in DMEM medium containing 10% fetal bovine serum (FBS) under 37° C. and 5% CO2 conditions for one day. When the cell density reached about 80%, the medium was replaced with a differentiation medium and the cells were cultured for additional 3 days.
Subsequently, MuRF1, Atrogin1, MyHC, Myogenin (muscle markers) and Calpain 3, PDK-4, and GDF-15 (other target markers for muscle related disease) were analyzed using Western blot, and the relative expression levels for the markers are shown in FIGS. 26 and 28.

[3] = test system: MuRF1; assay: MuRF1 expression (Western blot) in CCM-treated C2C12 myotubes; details: 72 hours, compared to other experimental groups (components alone and in combination)
Procedure: (§4) A C2C12 cell line was dispensed into a 6-well plate at 4.0×10^5 cells/well, and then cultured in DMEM medium containing 10% fetal bovine serum (FBS) under 37° C. and 5% CO2 conditions for one day. When the cell density reached about 80%, the medium was replaced with a differentiation medium and the cells were cultured for additional 3 days. After confirming completion of differentiation of the cells, the cells were treated with a mixture, in which the differentiation medium and cancer-cell conditioned medium (CCM) were mixed at a 1:1 ratio, to form a control group, and simultaneously, a test group was set up by treating with the calcium salts of Preparation Examples 1 to 3 according to three predetermined concentrations.
as §3

[4] = test system: Atrogin1; assay: Atrogin1 expression (Western blot) in CCM-treated C2C12 myotubes; details: 72 hours, compared to other experimental groups (components alone and in combination)
Procedure: as §4, §3

[5] = test system: Myogenin; assay: Myogenin expression (Western blot) in CCM-treated C2C12 myotubes; details: 72 hours, compared to other experimental groups (components alone and in combination)
Procedure: as §4, §3

[6] = test system: GDF-15; assay: GDF-15 expression (Western blot) in CCM-treated C2C12 myotubes; details: for expression of GDF-15: C2C12 myotubes + CCM, 72 hours, comparison experiment with components alone and in combination; for expression level of GDF-15: C2C12 myotubes, differentiation medium:CCM 1:1, 72 hours, three predetermined concentrations, vs CCM control
Procedure: as §2
The analysis was performed in the same manner as in Experimental Example 4-1 except for analyzing GDF-15 as a target marker for a Western blot, and the results are summarized in FIGS. 8 and 9.
The analysis was performed in the same manner as in Experimental Example 3-1 except for analyzing PDK-4 as a target marker for Western blot, and the results are summarized in FIGS. 10 and 11.
as §3

[7] = test system: Calpain 3; assay: Calpain 3 expression (Western blot) in CCM-treated C2C12 myotubes
Procedure: as §2
The experiment was performed in the same manner as in Experimental Example 3-1, except that Calpain 3 was analyzed as a target marker for Western blot, and the results are summarized in FIG. 7.
as §3

[8] = test system: MyHC; assay: MyHC expression (Western blot) in CCM-treated C2C12 myotubes; details: 72 hours, compared to other experimental groups (components alone and in combination)
Procedure: as §4, §3

[9] = test system: MyHC; assay: MyHC expression (Western blot) in C2C12 myotubes treated with inducers (no CCM); details: 50 μM, 72 hours, vs UCM
Procedure: as §1
(§5) Subsequently, the expression of PDK-4, MuRF1, Atrogin1, MyHC, and Myogenin in the normal control group (UCM) and the activator-treated group (WY-14643) were analyzed by Western blot, and the results are shown in FIGS. 14A and 14B. […]
(§6) Subsequently, the expression of Calpain 3, MuRF1, Atrogin1, MyHC, and Myogenin in the normal control group (UCM), vehicle control group (scrambled siRNA), and Calpain 3 siRNA treated group was analyzed by Western blot, and the results are shown in FIGS. 16A and 16B. […]

[10] = test system: MuRF1; assay: MuRF1 expression (Western blot) in C2C12 myotubes treated with inducers (no CCM); details: 50 μM, 72 hours, vs UCM
Procedure: as §1, §5, §6

[11] = test system: Myogenin; assay: Myogenin expression (Western blot) in C2C12 myotubes treated with inducers (no CCM); details: 50 μM, 72 hours, vs UCM
Procedure: as §1, §5, §6

[12] = test system: PDK-4; assay: PDK-4 expression (Western blot) in C2C12 myotubes treated with inducers (no CCM); details: 50 μM, 72 hours, vs UCM
Procedure: as §1
Subsequently, the expression of PDK-4, MuRF1, Atrogin1, MyHC, and Myogenin in the normal control group (UCM) and the activator-treated group (WY-14643) were analyzed by Western blot, and the results are shown in FIGS. 14A and 14B.
as §3, with “days. […]” for “days.”

[13] = test system: Atrogin1; assay: Atrogin1 expression (Western blot) in C2C12 myotubes treated with inducers (no CCM); details: 50 μM, 72 hours, vs UCM
Procedure: as §1, §5, §6

[14] = test system: C2C12 myotube cells; assay: Myotube diameter (crystal violet, Image J) of CCM-treated C2C12 myotubes; details: C2C12 myotubes + CCM 1:1, 72 hours, predetermined concentration; compared to CCM
Procedure: A C2C12 cell line was dispensed into a 6-well plate at 4.0×10^5 cells/well, and then cultured in DMEM medium containing 10% fetal bovine serum (FBS) under 37° C. and 5% CO2 conditions for one day. When the cell density reached about 80%, the medium was replaced with a differentiation medium and the cells were cultured for additional 3 days. […] The myotube diameter was measured using Image J from the above image, and the change in myotube cell diameter is summarized in FIG. 17B. A C2C12 cell line was dispensed into a 6-well plate at 4.0×10^5 cells/well, and then cultured in DMEM medium containing 10% fetal bovine serum (FBS) under 37° C. and 5% CO2 conditions for one day. When the cell density reached about 80%, the medium was replaced with a differentiation medium and the cells were cultured for additional 3 days. […] The myotube diameter was measured using Image J from the above images, and the changes in myotube cell diameter are summarized in FIG. 24B.

[15] = C2C12 myotubes + CCM, 72 hours, compared to other experimental groups (components alone and in combination)
[16] = C2C12 myotubes, differentiation medium:CCM 1:1, 72 hours, three predetermined concentrations, vs CCM control

Structure (SMILES) | expression of PDK-4 [2] | expression level of PDK-4 [2] | expression of MuRF1 [3] | expression of Atrogin1 [4] | expression of Myogenin [5] | expression of GDF-15 [6] | expression level of GDF-15 [6] | expression level of Calpain 3 [7, 15] | expression level of Calpain 3 [7, 16] | expression of MyHC [8] | diameter of myotube cells [14] | also measured
C[C@@H]1C[C@H]2[C@@H]3CCC4=CC(=O)C=C[C@]4(C)[C@@]3(F)[C@@H](O)C[C@]2(C)[C@@]1(O)C(=O)CO [dexamethasone] | – | – | – | – | – | – | – | – | – | – | – | treatment concentration from which the myotube diameter started to decrease [1]: ≥ 1 µM
CC(C)CC(N)C(=O)[O-].O=C([O-])C(Cl)Cl.[Ca+2] (centres unmarked) [Preparation Example 3, calcium salts of dichloroacetic acid and leucine] | inhibited | expression was inhibited | excellent effect of inhibiting the increase of expression | excellent effect of inhibiting the increase of expression | excellent effect of inhibiting the decrease of expression | inhibited | expression was inhibited | higher expression level | decrease in expression was inhibited | excellent effect of inhibiting the decrease of expression | – | –
Cc1cccc(Nc2cc(Cl)nc(SCC(=O)O)n2)c1C [WY-14643] | – | – | – | – | – | – | – | – | – | – | – | expression of MyHC [9]: down-regulated; diameter of myotube cells ([1]; 50 μM, vs normal control (UCM)): decreased; expression of MuRF1 [10]: up-regulated; expression of Myogenin [11]: down-regulated; expression of PDK-4 [12]: up-regulated; expression of Atrogin1 [13]: up-regulated
O=C1O[C@H]([C@@H](O)CO)C(O)=C1O [ascorbic acid, reference compound] | – | – | – | – | – | – | – | – | – | – | increased | –
CC(C)CC(N)C(=O)[O-].O=C1OC(C(O)CO)C([O-])=C1O.[Ca+2] (centres unmarked) [Preparation Example 2, calcium salts of ascorbic acid and leucine] | inhibited | expression was inhibited | excellent effect of inhibiting the increase of expression | excellent effect of inhibiting the increase of expression | excellent effect of inhibiting the decrease of expression | inhibited | expression was inhibited | higher expression level | decrease in expression was inhibited | excellent effect of inhibiting the decrease of expression | – | –
O=C(O)C(Cl)Cl [dichloroacetic acid, reference compound] | – | – | – | – | – | – | – | – | – | – | increased | –

From US20240408057A1, “Composition for preventing or treating cachexia and muscle loss” (METAFINES.CO.LTD., priority 2023, published 2024)
